According to article PMC12667733:

Experiment: head-to-tail lactamisation of side-chain-protected linear peptides, PyBOP (2 equiv), DIPEA (3 equiv, added dropwise), overnight at rt under N2; then TFA global deprotection and prep RP-HPLC
Conditions: the molecule shown is the open-chain precursor, DMF, 1.0 mM, 25.0 °C, 2 steps

`C[C@H](N)C(=O)N[C@@H](COC(C)(C)C)C(=O)N[C@@H](Cc1ccc(OC(C)(C)C)cc1)C(=O)N[C@@H](COC(C)(C)C)C(=O)N[C@@H](COC(C)(C)C)C(=O)N[C@@H](CCCCNC(=O)OC(C)(C)C)C(=O)N1CCC[C@H]1C(=O)N[C@@H](Cc1ccccc1)C(=O)N[C@@H](COC(C)(C)C)C(=O)O` gave a ring closure, yield over several steps (27-membered ring) of 62%.
For `Cc1c(C)c(S(=O)(=O)NC(=N)NCCC[C@H](NC(=O)[C@H](Cc2ccc(OC(C)(C)C)cc2)NC(=O)CN)C(=O)N[C@@H](Cc2ccccc2)C(=O)N[C@@H](COC(C)(C)C)C(=O)O)c(C)c2c1OC(C)(C)C2` [H-Gly-Tyr(tBu)-Arg(Pbf)-Phe-Ser(tBu)-OH], the ring closure, yield over several steps (15-membered ring) was 64%.
`CC(C)C[C@H](NC(=O)CNC(=O)[C@H](Cc1cn(C(c2ccccc2)(c2ccccc2)c2ccccc2)cn1)NC(=O)[C@@H](NC(=O)CNC(=O)[C@@H](N)Cc1ccccc1)[C@@H](C)OC(C)(C)C)C(=O)N1CCC[C@H]1C(=O)N[C@@H](C)C(=O)N1CCC[C@H]1C(=O)O` [H-Phe-Gly-Thr(tBu)-His(Trt)-Gly-Leu-Pro-Ala-Pro-OH] showed a ring closure, yield over several steps (27-membered ring) of 57%.
Work on `CC(C)C[C@H](NC(=O)CN)C(=O)N[C@@H](COC(C)(C)C)C(=O)N[C@@H](Cc1ccccc1)C(=O)N[C@@H](C)C(=O)N[C@@H](Cc1ccccc1)C(=O)N1CCC[C@H]1C(=O)O` [H-Gly-Leu-Ser(tBu)-Phe-Ala-Phe-Pro-OH] yielded a ring closure, yield over several steps (21-membered ring) of 54%.
With `CC(C)C[C@H](NC(=O)CN)C(=O)N[C@@H](Cc1cn(C(c2ccccc2)(c2ccccc2)c2ccccc2)cn1)C(=O)N[C@@H](Cc1ccccc1)C(=O)N[C@@H](C)C(=O)N[C@@H](Cc1ccccc1)C(=O)N1CCC[C@H]1C(=O)O` [H-Gly-Leu-His(Trt)-Phe-Ala-Phe-Pro-OH] the ring closure, yield over several steps (21-membered ring) was 56%.
For `Cc1c(C)c(S(=O)(=O)NC(=N)NCCC[C@H](NC(=O)CN)C(=O)N[C@H](C(=O)N[C@@H](CCCCNC(=O)OC(C)(C)C)C(=O)N[C@@H](C)C(=O)O)C(C)C)c(C)c2c1OC(C)(C)C2` [H-Gly-Arg(Pbf)-Val-Lys(Boc)-Ala-OH], the ring closure, yield over several steps (15-membered ring) was 63%.
`CC(C)[C@H](NC(=O)CN)C(=O)N[C@@H](CCCCNC(=O)OC(C)(C)C)C(=O)N[C@@H](Cc1ccc(OC(C)(C)C)cc1)C(=O)N[C@@H](C)C(=O)O` [H-Gly-Val-Lys(Boc)-Tyr(tBu)-Ala-OH] gave a ring closure, yield over several steps (15-membered ring) of 68%.
`CC(C)[C@H](NC(=O)CN)C(=O)N[C@@H](C)C(=O)N[C@@H](Cc1cn(C(=O)OC(C)(C)C)c2ccccc12)C(=O)N[C@@H](C)C(=O)O` [H-Gly-Val-Ala-Trp(Boc)-Ala-OH] showed a ring closure, yield over several steps (15-membered ring) of 48%.
Work on `CC(C)[C@H](NC(=O)[C@@H]1CCCN1C(=O)[C@@H](NC(=O)CN)C(C)C)C(=O)N[C@@H](Cc1cn(C(=O)OC(C)(C)C)c2ccccc12)C(=O)N[C@@H](C)C(=O)O` [H-Gly-Val-Pro-Val-Trp(Boc)-Ala-OH] yielded a ring closure, yield over several steps (18-membered ring) of 51%.
For `CC(C)C[C@H](NC(=O)[C@@H]1CCCN1C(=O)[C@@H](NC(=O)[C@H](Cc1ccc(OC(C)(C)C)cc1)NC(=O)CN)C(C)C)C(=O)N[C@@H](Cc1cn(C(=O)OC(C)(C)C)c2ccccc12)C(=O)N1CCC[C@H]1C(=O)O` [H-Gly-Tyr(tBu)-Val-Pro-Leu-Trp(Boc)-Pro-OH], the ring closure, yield over several steps (21-membered ring) was 57%.
